Reference: patent publication US11000033B2, “Ketone or oxime compound, and herbicide” (NISSAN CHEMICAL CORPORATION, priority 2014, dated 2021)

Columns and labels:
Assay type in all cases: in vivo
Amaranthus retroflexus = assay: Test Example 5: herbicidal effect by foliage application, plastic box (symbol N); details: 320 g/ha, 3 weeks after application
Outline: (§1)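 Seeds were sown in sterilized diluvial soil, covered with about 1.5 cm of soil and grown 14 days in a greenhouse at 25° C. to 30° C. An emulsifiable formulation diluted in water to a set rate was sprayed over foliage, and injury was scored 3 weeks later.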

Leptochloa chinensis = assay: Test Example 3: herbicidal effect by foliage application, Wagner pot (symbol D); details: application herbicide amount 320 g/ha
Outline: (§2)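 Herbicidal activity was rated three weeks after a foliar spray of diluted emulsion concentrate, applied at a predetermined dose to plants grown for 14 days from seed in waterlogged alluvial soil within a 25–30 °C greenhouse.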

[1] = test system: Echinochloa crus-galli var. crus-galli; assay: Test Example 5: herbicidal effect by foliage application, plastic box (symbol H); details: 320 g/ha, 3 weeks after application
Outline: as §1

Galium spurium = assay: Test Example 5: herbicidal effect by foliage application, plastic box (symbol Q); details: 320 g/ha, 3 weeks after application
Outline: as §1

Chenopodium album = assay: Test Example 5: herbicidal effect by foliage application, plastic box (symbol O); details: 320 g/ha, 3 weeks after application
Outline: as §1

Cyperus difformis = assay: Test Example 3: herbicidal effect by foliage application, Wagner pot (symbol E); details: application herbicide amount 320 g/ha
Outline: as §2

rice plant = assay: Test Example 5: effect on crop by foliage application, plastic box (symbol b); details: 320 g/ha, 3 weeks after application
Outline: (§3)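 Soil: sterilized diluvial. Container: plastic box, 21 × 13 cm, 7 cm deep. Sowing: spot-like, ~1.5 cm cover. Growth: greenhouse, 25° C. to 30° C.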

soybean = assay: Test Example 5: effect on crop by foliage application, plastic box (symbol d); details: 320 g/ha, 3 weeks after application
Outline: as §3

Lolium multiflorum Lam. = assay: Test Example 5: herbicidal effect by foliage application, plastic box (symbol K); details: 320 g/ha, 3 weeks after application
Outline: as §1

wheat = assay: Test Example 5: effect on crop by foliage application, plastic box (symbol e); details: 320 g/ha, 3 weeks after application
Outline: as §3

Abutilon theophrasti = assay: Test Example 5: herbicidal effect by foliage application, plastic box (symbol M); details: 320 g/ha, 3 weeks after application
Outline: as §1

Apera spica-venti = assay: Test Example 5: herbicidal effect by foliage application, plastic box (symbol L); details: 320 g/ha, 3 weeks after application
Outline: as §1

Alopecurus myosuroides = assay: Test Example 5: herbicidal effect by foliage application, plastic box (symbol J); details: 320 g/ha, 3 weeks after application
Outline: as §1

Avena fatua = assay: Test Example 5: herbicidal effect by foliage application, plastic box (symbol I); details: 320 g/ha, 3 weeks after application
Outline: as §1

Setaria viridis = assay: Test Example 5: herbicidal effect by foliage application, plastic box (symbol G); details: 320 g/ha, 3 weeks after application
Outline: as §1

[2] = test system: directly sowed rice plant; assay: Test Example 3: effect on crop by foliage application, Wagner pot (symbol b); details: application herbicide amount 320 g/ha
Outline: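 Alluvial soil in a 1/10000-are Wagner pot was flooded to a water depth of 0.1–0.5 cm. Echinochloa crus-galli var. crus-galli, Leptochloa chinensis, Cyperus difformis and rice were sown into it and grown in a greenhouse at 25–30 °C.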

Stellaria media = assay: Test Example 5: herbicidal effect by foliage application, plastic box (symbol P); details: 320 g/ha, 3 weeks after application
Outline: as §1

corn = assay: Test Example 5: effect on crop by foliage application, plastic box (symbol c); details: 320 g/ha, 3 weeks after application
Outline: as §3

Digitaria ciliaris = assay: Test Example 5: herbicidal effect by foliage application, plastic box (symbol F); details: 320 g/ha, 3 weeks after application
Outline: as §1

Veronica persica = assay: Test Example 5: herbicidal effect by foliage application, plastic box (symbol R); details: 320 g/ha, 3 weeks after application
Outline: as §1

[3] = test system: Echinochloa crus-galli var. crus-galli; assay: Test Example 3: herbicidal effect by foliage application, Wagner pot (symbol H); details: application herbicide amount 320 g/ha
Outline: as §2

rapeseed = assay: Test Example 5: effect on crop by foliage application, plastic box (symbol g); details: 320 g/ha, 3 weeks after application
Outline: as §3

beet = assay: Test Example 5: effect on crop by foliage application, plastic box (symbol f); details: 320 g/ha, 3 weeks after application
Outline: as §3

Compound	N: Amaranthus retroflexus, herbicidal effect grade (Amaranthus retroflexus)	herbicidal effect on D (Leptochloa chinensis), grade 0-5 (Leptochloa chinensis)	H: Echinochloa crus-galli var. crus-galli, herbicidal effect grade [1]	Q: Galium spurium, herbicidal effect grade (Galium spurium)	O: Chenopodium album, herbicidal effect grade (Chenopodium album)	herbicidal effect on E, grade 0-5 (Cyperus difformis)	b: directly sowed rice plant, effect on crop grade (rice plant)	d: soybean, effect on crop grade (soybean)	K: Lolium multiflorum Lam., herbicidal effect grade (Lolium multiflorum Lam.)	e: wheat, effect on crop grade (wheat)	M: Abutilon theophrasti, herbicidal effect grade (Abutilon theophrasti)	L: Apera spica-venti, herbicidal effect grade (Apera spica-venti)	J: Alopecurus myosuroides, herbicidal effect grade (Alopecurus myosuroides)	I: Avena fatua, herbicidal effect grade (Avena fatua)	G: Setaria viridis, herbicidal effect grade (Setaria viridis)	effect on crop b (directly sowed rice plant), grade 0-5 [2]	P: Stellaria media, herbicidal effect grade (Stellaria media)	c: corn, effect on crop grade (corn)	F: Digitaria ciliaris, herbicidal effect grade (Digitaria ciliaris)	R: Veronica persica, herbicidal effect grade (Veronica persica)	other results
CCOC(=O)C(C(=O)C1CCCCC1)C1CC(O)=C(c2c(C)cc(C)cc2C)C1=O (stereo not shown) [2-029]	0 (Herbicidal ratio of 5% or lower (almost no effect))	0 (Herbicidal ratio of 5% or lower (almost no effect))	0 (Herbicidal ratio of 5% or lower (almost no effect))	0 (Herbicidal ratio of 5% or lower (almost no effect))	0 (Herbicidal ratio of 5% or lower (almost no effect))	0 (Herbicidal ratio of 5% or lower (almost no effect))	2 (Herbicidal ratio of 20% or higher and lower than 40%)	0 (Herbicidal ratio of 5% or lower (almost no effect))	1 (Herbicidal ratio of 5% or higher and lower than 20%)	0 (Herbicidal ratio of 5% or lower (almost no effect))	0 (Herbicidal ratio of 5% or lower (almost no effect))	0 (Herbicidal ratio of 5% or lower (almost no effect))	0 (Herbicidal ratio of 5% or lower (almost no effect))	2 (Herbicidal ratio of 20% or higher and lower than 40%)	0 (Herbicidal ratio of 5% or lower (almost no effect))	4 (Herbicidal ratio of 70% or higher and lower than 90%)	0 (Herbicidal ratio of 5% or lower (almost no effect))	0 (Herbicidal ratio of 5% or lower (almost no effect))	0 (Herbicidal ratio of 5% or lower (almost no effect))	0 (Herbicidal ratio of 5% or lower (almost no effect))	herbicidal effect on H (Echinochloa crus-galli var. crus-galli), grade 0-5 [3]: 0 (Herbicidal ratio of 5% or lower (almost no effect)); g: rapeseed, effect on crop grade (rapeseed): 0 (Herbicidal ratio of 5% or lower (almost no effect)); f: beet, effect on crop grade (beet): 0 (Herbicidal ratio of 5% or lower (almost no effect))
CON=C(C)CC1CC(OC(=O)N(C(C)C)C(C)C)=C(c2c(C)cc(C)cc2C)C1=O (stereo not shown) [1-158]	0 (Herbicidal ratio of 5% or lower (almost no effect))	2 (Herbicidal ratio of 20% or higher and lower than 40%)	1 (Herbicidal ratio of 5% or higher and lower than 20%)	0 (Herbicidal ratio of 5% or lower (almost no effect))	0 (Herbicidal ratio of 5% or lower (almost no effect))	0 (Herbicidal ratio of 5% or lower (almost no effect))	1 (Herbicidal ratio of 5% or higher and lower than 20%)	0 (Herbicidal ratio of 5% or lower (almost no effect))	4 (Herbicidal ratio of 70% or higher and lower than 90%)	0 (Herbicidal ratio of 5% or lower (almost no effect))	0 (Herbicidal ratio of 5% or lower (almost no effect))	0 (Herbicidal ratio of 5% or lower (almost no effect))	1 (Herbicidal ratio of 5% or higher and lower than 20%)	3 (Herbicidal ratio of 40% or higher and lower than 70%)	0 (Herbicidal ratio of 5% or lower (almost no effect))	2 (Herbicidal ratio of 20% or higher and lower than 40%)	0 (Herbicidal ratio of 5% or lower (almost no effect))	0 (Herbicidal ratio of 5% or lower (almost no effect))	0 (Herbicidal ratio of 5% or lower (almost no effect))	0 (Herbicidal ratio of 5% or lower (almost no effect))	herbicidal effect on H (Echinochloa crus-galli var. crus-galli), grade 0-5 [3]: 0 (Herbicidal ratio of 5% or lower (almost no effect)); g: rapeseed, effect on crop grade (rapeseed): 2 (Herbicidal ratio of 20% or higher and lower than 40%); f: beet, effect on crop grade (beet): 0 (Herbicidal ratio of 5% or lower (almost no effect))
